Measurements as given in ChEMBL document CHEMBL1201862, “PubChem BioAssay data set” (2004).
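The compound was tested at five concentrations on cells cultured in 96-well plates, with a 48-hour exposure period. The concentration for 50% growth inhibition is given as GI50.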 Active and inactive are the calls of the source. No stated cut-off is given here; in the data, active = GI50 up to about 1.1 µM and inactive = higher. *1 amine or outer side, *2 acyl side, *3 side chain or, on linkers, in order; H or OH if unused. Where a SMILES comes first, the peptide text is derived from it. Bridges are numbered along the chain shown (N, C = ends). Roman numbers before positions name the chains, in order. [ ]: non-standard residue; d: D form. Actinocin(9to1) = Cc1c2oc3c(C)ccc(C(=O)[*:1])c3nc-2c(C(=O)[*:2])c(N)c1=O; NMeV = CN[CH](C(=O)O)C(C)C; Sar = CNCC(=O)O

Experiments:
Assay in all cases: growth of human tumour cells (NCI), 48 h
SK-OV-3 = tested on: SK-OV-3
NCI-H460 = tested on: NCI-H460
SK-MEL-2 = tested on: SK-MEL-2
LOX IMVI = tested on: LOX IMVI
HCT-15 = tested on: HCT-15
HCT-116 = tested on: HCT-116
TK-10 = tested on: TK-10
COLO 205 = tested on: COLO 205
NCI-H23 = tested on: NCI-H23
ACHN = tested on: ACHN
MOLT-4 = tested on: MOLT-4
SF-295 = tested on: SF-295
M14 = tested on: M14
HL-60 = tested on: HL-60
SN12C = tested on: SN12C
OVCAR-4 = tested on: OVCAR-4
SK-MEL-28 = tested on: SK-MEL-28
CCRF-CEM = tested on: CCRF-CEM
RXF 393 = tested on: RXF 393
786-0 = tested on: 786-0

Structure (SMILES)	GI50 (SK-OV-3)	GI50 (NCI-H460)	GI50 (SK-MEL-2)	GI50 (LOX IMVI)	GI50 (HCT-15)	GI50 (HCT-116)	GI50 (TK-10)	GI50 (COLO 205)	GI50 (NCI-H23)	GI50 (ACHN)	GI50 (MOLT-4)	GI50 (SF-295)	GI50 (M14)	GI50 (HL-60)	GI50 (SN12C)	GI50 (OVCAR-4)	GI50 (SK-MEL-28)	GI50 (CCRF-CEM)	GI50 (RXF 393)	GI50 (786-0)
Cn1c(=O)c2nc3sc4c(n3c2n(C)c1=O)C(=O)c1ccccc1C4=O	> 47.5 µM (inactive)	> 71.1 µM (inactive)	> 55.5 µM (inactive)	> 30.9 µM (inactive)	> 59.6 µM	> 54.8 µM (inactive)	> 100 µM (inactive)	> 73.5 µM (inactive)	57.3 µM (inactive)	> 32.4 µM (inactive)	13.5 µM (inactive)	> 72.3 µM (inactive)	> 100 µM (inactive)	11.2 µM (inactive)	> 69.2 µM (inactive)	> 64.6 µM (inactive)	> 75 µM (inactive)	17.6 µM (inactive)	> 26.5 µM (inactive)	> 68.1 µM (inactive)
Cc1c2oc3c(C)ccc(C(=O)NC4C(=O)NC(C(C)O)C(=O)N5CCCC5C(=O)N(C)CC(=O)N(C)C(C(C)C)C(=O)OC4C)c3nc-2c(C(=O)NC2C(=O)NC(C(C)O)C(=O)N3CCCC3C(=O)N(C)CC(=O)N(C)C(C(C)C)C(=O)OC2C)c(N)c1=O (stereo not given) (I: TTP[Sar][NMeV] / II: TTP[Sar][NMeV]; ester I:1-I:C, II:1-II:C; linker I:N-II:N via Actinocin(9to1); configuration not given here)	2.21 µM (inactive)	0.0818 µM (active)	0.133 µM (active)	0.0493 µM (active)	7.48 µM	0.0456 µM (active)	0.643 µM (active)	0.0528 µM (active)	0.274 µM (active)	0.427 µM (active)	0.0527 µM (active)	0.453 µM (active)	0.811 µM (active)	0.437 µM (active)	0.207 µM (active)	0.931 µM (active)	0.147 µM (active)	0.119 µM (active)	0.0946 µM (active)	0.136 µM (active)
CSC1(SC)N2Cc3ccccc3N=C2C1(c1ccccc1)c1ccccc1	> 54.5 µM (inactive)	7.48 µM (inactive)	12.7 µM (inactive)	12.3 µM (inactive)	12.1 µM	6.18 µM (inactive)	> 35.1 µM (inactive)	5.89 µM (inactive)	16 µM (inactive)	14.1 µM (inactive)	2.77 µM (inactive)	11.1 µM (inactive)	12.2 µM (inactive)	6.08 µM (inactive)	20.5 µM (inactive)	10.1 µM (inactive)	38.1 µM (inactive)	8.73 µM (inactive)	9.82 µM (inactive)	22.5 µM (inactive)
